Measured values published in patent US9029080B2, “Screening assay for insecticides” (priority 2008, dated 2015).

How the values were obtained:
CHO_pcDNA3 control cells = test: CHO_pcDNA3 control cells, FLIPR KCl depolarization; type: cell-based, Chinese hamster; details: 4-5 mM, dye loaded 1 hr at RT
Protocol: (§1) The effects of barium (Ba2+) on ShaI_delN function were tested. Barium is known to inhibit some open rectifier and inward rectifier K-channel activities. Cells were dye loaded in the presence of BaCl2 for 1 hr at RT and assayed on the FLIPR using KCl depolarization for channel activation.

ShaI_delN = target: T1, ShaI_delN (Drosophila melanogaster, UniProt P17971); test: ShaI_delN clonal lines, FLIPR blue membrane potential dye, KCl depolarization; type: cell-based; details: 4-5 mM, dye loaded 1 hr at RT
T1 construct: expressed in transfected cells; host or cells: CHO
Protocol: ShaI_DelN C10 and C15 were tested for function on the FLIPR using the Molecular Devices blue membrane potential dye. The cells were seeded at 60K cells/well in 96-well Costar plates in complete media and assayed for function at 24 hrs. Depolarization with 15-60 mM KCl caused a 2-2.8 fold higher activity in the clonal line than the pcDNA control cell line (FIG. 5). Clone 10 had slightly higher activity than clone 15.
FIG. 5: ShaI_DelN clones tested on FLIPR with KCl depolarization. We also tested some known K-channel blockers on channel activity on the FLIPR (FIG. 6). […] The ShaI_delN clonal cell lines lost their GFP expression and assay window with cell passage. At passage 12, only 10-15% of the cell population was GFP positive.
as §1

ShaI = target: T2, ShaI (Drosophila melanogaster, UniProt P17971); test: ShaI electrophysiology (patch clamp); type: cell-based
T2 construct: expressed in transfected cells; host or cells: CHO
T2 sequence (P17971 1-490 isoform P17971-1): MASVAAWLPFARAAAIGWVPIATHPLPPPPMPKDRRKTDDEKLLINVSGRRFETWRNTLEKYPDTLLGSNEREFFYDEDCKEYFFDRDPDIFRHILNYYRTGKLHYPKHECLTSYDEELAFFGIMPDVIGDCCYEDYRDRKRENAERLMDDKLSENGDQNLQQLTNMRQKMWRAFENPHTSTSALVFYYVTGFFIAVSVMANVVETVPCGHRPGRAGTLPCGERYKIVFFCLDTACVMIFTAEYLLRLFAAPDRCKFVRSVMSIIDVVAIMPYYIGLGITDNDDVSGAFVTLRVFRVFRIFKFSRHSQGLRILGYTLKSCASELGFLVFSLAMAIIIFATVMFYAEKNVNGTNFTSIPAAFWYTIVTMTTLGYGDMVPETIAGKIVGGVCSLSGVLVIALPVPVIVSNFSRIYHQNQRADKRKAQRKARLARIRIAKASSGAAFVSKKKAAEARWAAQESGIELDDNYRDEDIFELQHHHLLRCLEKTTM
Protocol: Data were acquired and analyzed using pClamp software (version 9.0.1.16). The whole-cell configuration of the patch-clamp technique was used to voltage clamp cells at room temperature (22-25° C.). Pipettes were pulled from borosilicate glass capillaries (#8250, Garner Glass, Claremont, Calif.) using a DMZ Universal Puller (Zeitz, Munich, Germany) and had resistances of 1-2 MOhm when filled with pipette solution and measured in bath solution. The liquid junction potential between bath and pipette solution was always compensated before the formation of a gigaohm seal.
Membrane current was measured under whole-cell clamp, sampled at 2 kHz and filtered at 1 kHz by an Axoclamp 200B (Axon Instruments). Capacitance currents were electronically compensated at the beginning of each experiment. P/4 leak correction was applied.
To study ShaI currents on CHO cells, cells were held at −70 mV and a family of 500 ms test voltage pulses was applied starting from −70 to +70 mV, or +100 mV, in 10 mV increments. The amplitude, as measured for the current-voltage relationship, was defined as the maximal current at a given membrane potential.

[1] = system: calcium-activated potassium currents; details: DUM neurons from cockroaches; cited from earlier work
DmSK Potassium Channel = target: T3, DmSK Potassium Channel (Drosophila melanogaster, UniProt Q7KVW5); test: Xenopus laevis oocyte two-electrode voltage clamp of DmSK; type: cell-based; details: intracellular injection of 100 mM, oocytes clamped at +5 mV
T3 construct: expressed in transfected cells; host or cells: Xenopus laevis oocytes injected with in vitro transcribed RNA
Protocol: Purpose: To utilize the oocyte two-electrode voltage clamp expression system to assay functional expression of the […] Drosophila melanogaster small-conductance calcium-activated potassium channel (SK) within Xenopus laevis oocytes.
Stage V-VI oocytes were injected with 50 nl of in vitro transcribed DmSK RNA (1 ug/ul) using a Drummond Nanoject Injector (pCRII-SK2+4D plasmid linearized with HindIII and transcribed using the Ambion T7 mMessage mMachine transcription kit).
Channel expression was assayed using two-electrode voltage clamp (borosilicate glass 1.5 mm×1.12 mm filled with 3M KCl) through a Turbo Tec 10C Amplifier (NPI Instruments) connected to an Apple PowerMac G3 via an ADInstruments PowerLab system.
Injected oocytes with resting potentials greater than −30 mV were clamped at +5 mV and perfused with ND-96 bath solution (96 mM NaCl, 2 mM KCl, 1 mM MgCl2, 0.3 mM CaCl2, 5 mM HEPES at pH 7.5 and 230 mOsm) Currents measured were filtered at 2 kHz and with a 50/60 Hz HumBug noise eliminator.
SK channels were activated with intracellular injection of 100 mM […] (9.2 nl) using the nanoject while clamped. Measured currents were compared to published results of SK activation within oocytes (FIG. 85).

DmSK = target: T4, DmSK (Drosophila melanogaster, UniProt Q7KVW5); test: DmSK CHO membrane potential dye assay, ionomycin activation; type: cell-based
T4 construct: The resulting construct contains the SK CDS downstream of the CMV promoter; expressed in transfected cells; host or cells: CHO-K1 (pool 3 / clone SK3 and subclones)
Protocol: Basic test protocol: Cells were plated at 5×10^4/well into 96-well poly-D-lysine assay plates (BD Biosciences) and placed at 37 C/5% CO2 the day before testing. Culture medium was aspirated and replaced with 0.4× blue membrane potential dye (Molecular Devices Corporation) in assay buffer and incubated for 1 hour at RT. The assay was run by reading baseline fluorescence for 20 sec, and reading an additional 60 or 180 sec after activation.
This assay was developed using the Molecular Devices blue membrane potential dye at 0.4× the normal concentration. It is important to vortex the dye upon hydration and rinse the vial repeatedly to ensure that all the dye has been recovered and that it is in solution. The dye can be stored during the day at 4°. Dye loading is carried out by flipping the culture medium from the 96-well poly-D-lysine plate, gently tapping the plate on Kimwipes to remove excess medium, replacing it with 180 ul 0.4× dye per well, and incubating in the dark at room temperature (25° C.-28° C.) for 3-5 hr. The assay plate is now ready for testing which comprises a 20 ul (10×) first addition and 50 ul (5×) second addition. 50 uM propafenone [final] is used as a control inhibitor. The assay is read for three minutes after activation to allow maximum window development relative to controls. […]

[2] = Ionomycin stability in solution; type: physicochemical; details: 5 uM in assay buffer, SK activation
Protocol: An experiment was conducted (data not shown) to examine the stability of ionomycin in solution. Ionomycin was diluted to 5 uM in assay buffer, loaded into a compound plate and compared with freshly-prepared ionomycin for SK activation the following day. The freshly-prepared ionomycin yielded a statistically significant 6% increase in assay window size, so our recommendation is for freshly-prepared ionomycin.

[3] = target: T5, octopamine receptor (OctR, CG6919 dmOa2) (Drosophila melanogaster, UniProt Q9VCZ3); test: OctR clone 55 FLIPR Fluo-4 calcium assay; type: cell-based
T5 construct: expressed in transfected cells; host or cells: CHO stably expressing G-alpha-16
Protocol: FIG. 62. Cells were plated at 10K/well in 384 well plates and allowed to incubate overnight at […]. The cells were assayed 18-24 hours after seeding. Media was removed and cells were dye loaded for 60 minutes with 2 μM Fluo-4. After 1 hour, dye was removed and 20 μl of buffer added to the plate and placed into FLIPR. The 1st addition was antagonist dose response curves and the 2nd addition was agonist dose response curves. Antagonists were challenged with 100 nM Octopamine. In addition, these compounds were tested in the parental cell line CHO-Galpha16.
Cells were plated at 10,000 cells/well in 50 μl into 384-well black TC plates and allowed to incubate overnight at 37° C./5% CO2. The cells were assayed 18-24 hours after seeding. Culture medium was removed by flicking and cells were dye loaded for 60 minutes with 20 μl of 2 μM Fluo-4 in assay buffer plus probenecid at 25° C. After one hour dye was removed by flicking and 20 μL of assay buffer was added, wait 5 min prior to placing into the FLIPR and run using a two-addition protocol. The first addition (20 ul, 2×) was 0.5% DMSO final in assay buffer. The second addition (20 ul, 3×) was either assay buffer or 100 nM octopamine final.

[4] = Stability of octopamine solutions; type: physicochemical
Protocol: Octopamine was tested comparing freshly diluted versus a 24-hour solution (data not shown). The response obtained with the 24-hour solution stored at room temperature was identical to that of the freshly diluted solution. We have repeatedly […]

[5] = target: T6, octopamine receptor (OctR) (Drosophila melanogaster, UniProt Q9VCZ3); test: Transient OctR expression in CHO G-alpha-16 cells, Fluo-4, Discovery microscope; type: cell-based
T6 construct: various amounts of untagged OctR-pcDNA3.1 DNA were transfected into CHO cells; expressed in transfected cells; host or cells: CHO stably expressing G-alpha-16, transient transfection
T6 sequence (Q9VCZ3 1-508): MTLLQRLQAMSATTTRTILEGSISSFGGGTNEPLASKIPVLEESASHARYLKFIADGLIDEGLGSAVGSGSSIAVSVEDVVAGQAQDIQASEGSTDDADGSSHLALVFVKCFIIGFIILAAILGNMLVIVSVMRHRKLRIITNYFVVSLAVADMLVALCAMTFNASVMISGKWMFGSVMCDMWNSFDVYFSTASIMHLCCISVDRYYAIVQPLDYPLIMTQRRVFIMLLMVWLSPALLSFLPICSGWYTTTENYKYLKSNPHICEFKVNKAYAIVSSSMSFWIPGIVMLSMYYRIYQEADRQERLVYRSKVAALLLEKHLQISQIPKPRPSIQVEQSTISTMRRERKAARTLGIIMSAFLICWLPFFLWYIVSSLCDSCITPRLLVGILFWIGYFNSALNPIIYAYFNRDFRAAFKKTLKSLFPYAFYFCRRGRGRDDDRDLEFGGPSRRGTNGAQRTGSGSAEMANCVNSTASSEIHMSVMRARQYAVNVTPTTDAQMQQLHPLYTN
Protocol: The untagged and GFP-tagged versions of OctR, which natively couples to cAMP, were transiently expressed in CHO cells stably expressing the G-alpha-16 promiscuous G protein, which signals through calcium. This allowed activation of the receptor to be measured by calcium-sensing fluorescent dyes.
In FIG. 55A, various amounts of untagged OctR-pcDNA3.1 DNA were transfected into CHO cells (6-well dish, 300,000 cells/well) and tested for function at 48 hours using Fluo-4 dye on the Discovery microscope. The graph shown below represents an average of all single-cell readings from cells expressing the cyan vector. It is assumed that the majority of cells expressing the cyan vector also express OctR.
FIG. 55. Calcium-sensing Fluo-4 fluorescent dye response to octopamine or tyramine stimulation in CHO cells stably expressing G-alpha-16 and transiently expressing increasing amounts of untagged or GFP-tagged OctR-pcDNA3.1. Cells cotransfected with pAmCyan vector as a marker of transfected cells were stimulated with a maximal dose of octopamine or sub-maximal dose of tyramine. Well averages of single-cell response measured on the Discovery microscope are graphed above.

## [Ba+2] [Ba2+]
CHO_pcDNA3 control cells
  fluorescent responses with KCl depolarization: significantly reduced fluorescent responses
ShaI_delN
  ShaI_delN channel activity with KCl depolarization: without any significant reduction
ShaI
  ShaI outward currents: not inhibited

## CSSC [DMDS, di-methyl disulfide]
[1]
  effect on calcium-activated potassium currents: inhibits calcium-activated potassium currents

## [Cl][Cd][Cl] [cadmium chloride]
DmSK Potassium Channel
  activation of DmSK outward currents: outward currents activated by at least three 9.2 nl injections

## C[C@H](CCC(=O)O)C[C@H](C)C[C@H](C)C(=O)/C=C(\O)[C@H](C)C[C@H](C)C/C=C/[C@@H](C)[C@@H](O)[C@@H](C)[C@@H](O)C[C@@H]1CC[C@@](C)([C@H]2CC[C@@](C)([C@@H](C)O)O2)O1 [ionomycin]
DmSK
  EC50: 200 nM
DmSK; SK3, relative to controls
  concentration above which no increase in response window: 800 nM
[2]
  increase in assay window size, freshly-prepared versus solution of the day before: 6%

## NCC(O)c1ccc(O)cc1 (centres unmarked) [octopamine]
[3]; 20-plate DMSO test run, 2nd addition
  80% octopamine control concentration: 100 nM
[3]; clone 55, same as published cAMP data
  rank order of potency (agonists): naphazoline>octopamine>amitraz>clonidine>tolazoline
[4]; 10 mM DMSO stocks
  activity after repeated freeze-thaw: no reduction in activity
[4]; stored at room temperature, data not shown
  response of 24-hour solution versus freshly diluted solution: identical

## NCCc1ccc(O)cc1 [tyramine]
[5]; preliminary data and published reports
  efficacy relative to octopamine: only slightly less efficacious
[5]; sub-maximal dose
  activation of octopamine receptor: activated by tyramine
